Test results from US20210038607A1, “OXADIAZOLYLTHIOPHENE DERIVATIVES USEFUL AS HISTONE DEACETYLASE INHIBITORS” (Karus Therapeutics Limited, priority 2018, published 2021).
Values belong to the molecule of their own block, whether it stands above or below them.

What was measured:
[1] = target: T1, Human HDAC5 (Homo sapiens, UniProt Q9UQL6); experiment: HDAC5 biochemical assay, class IIa-specific substrate; conditions: read-out: HDAC Isoform IC50 (nM) 5
T1 construct: full length with C-terminal His tag, MW=51.1 kDa; His (C); host or cells: baculovirus expression system
Outline: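 Two-step fluorogenic read-out: deacetylated trifluoroacetyl-lysine AMC substrate (50 μM) digested by developer, measured at Ex/Em 360/460. Deacetylation step: 0.05 ng/ul His-tagged full-length baculoviral enzyme with compound, 30 min, room temperature, pH 8.0 Tris with 1 mg/mL BSA and 1% DMSO.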

[2] = target: T2, Complex of human HDAC3 and human NCOR2 (Homo sapiens, UniProt O15379); experiment: HDAC3 biochemical assay, AMC-labeled peptide substrate; conditions: read-out: HDAC Isoform IC50 (nM) 3
T2 construct: full length with C-terminal His tag, MW=49.7 kDa; His (C); host or cells: baculovirus expression system (co-expressed)
Outline: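 Two-stage fluorogenic read: compounds incubated 1 h at 30° C with 50 μM RHKK(Ac)AMC and 0.1 ng/ul HDAC3–NCOR2(395-489) complex (Tris pH8.0, NaCl, KCl, MgCl2, BSA, 1% DMSO). Developer digestion of deacetylated product gives signal at Ex 360/Em 460.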

[3] = target: T3, Human HDAC7 (Homo sapiens, UniProt Q8WUI4); experiment: HDAC7 biochemical assay, class IIa-specific substrate; conditions: read-out: HDAC Isoform IC50 (nM) 7
T3 construct: (a.a. 518-end) with N-terminal GST tag; GST (N); host or cells: baculovirus expression system
T3 sequence (Q8WUI4 518-952 limits assumed): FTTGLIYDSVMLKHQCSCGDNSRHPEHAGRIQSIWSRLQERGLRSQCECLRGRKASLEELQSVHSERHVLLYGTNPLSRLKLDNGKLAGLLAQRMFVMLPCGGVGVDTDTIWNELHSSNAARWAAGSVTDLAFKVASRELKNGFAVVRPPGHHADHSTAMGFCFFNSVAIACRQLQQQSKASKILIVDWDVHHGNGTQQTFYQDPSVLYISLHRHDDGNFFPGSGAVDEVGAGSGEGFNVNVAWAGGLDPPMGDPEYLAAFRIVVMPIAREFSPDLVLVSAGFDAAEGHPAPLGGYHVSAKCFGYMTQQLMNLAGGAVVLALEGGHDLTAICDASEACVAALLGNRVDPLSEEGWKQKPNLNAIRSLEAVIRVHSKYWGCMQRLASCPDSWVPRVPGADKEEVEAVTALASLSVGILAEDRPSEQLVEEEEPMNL
Outline: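 Two-step fluorogenic readout: class IIa-selective trifluoroacetyl-lysine AMC substrate (50 μM) deacetylated by N-terminal GST-HDAC7 fragment (0.001 ng/ul), then digested by developer, Ex/Em 360/460. Reaction: 30 min, room temperature, Tris-HCl pH 8.0, NaCl/KCl/MgCl2, 1 mg/mL BSA, 1% DMSO.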

[4] = target: T4, Human HDAC2 (Homo sapiens, UniProt Q92769); experiment: HDAC2 biochemical assay, AMC-labeled peptide substrate; conditions: read-out: HDAC Isoform IC50 (nM) 2
T4 construct: full length with C-terminal GST-tag; GST (C); host or cells: baculovirus expression system
Outline: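 Full-length human HDAC2 with C-terminal GST tag, baculovirus-expressed, at 0.07 ng/ul with 50 μM RHKK(Ac)AMC substrate in Tris-HCl pH8.0 buffer with BSA, 1% DMSO final. Incubated 1 hour at 30° C with compounds, then developer added; fluorescence read at 360/460 Ex/Em.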

[5] = target: T5, Human HDAC11 (Homo sapiens, UniProt Q96DB2); experiment: HDAC11 biochemical assay, class IIa-specific substrate; conditions: read-out: HDAC Isoform IC50 (nM) 11
T5 construct: Human HDAC11 (full length); His (N); host or cells: baculovirus expression system
T5 sequence (Q96DB2 1-347): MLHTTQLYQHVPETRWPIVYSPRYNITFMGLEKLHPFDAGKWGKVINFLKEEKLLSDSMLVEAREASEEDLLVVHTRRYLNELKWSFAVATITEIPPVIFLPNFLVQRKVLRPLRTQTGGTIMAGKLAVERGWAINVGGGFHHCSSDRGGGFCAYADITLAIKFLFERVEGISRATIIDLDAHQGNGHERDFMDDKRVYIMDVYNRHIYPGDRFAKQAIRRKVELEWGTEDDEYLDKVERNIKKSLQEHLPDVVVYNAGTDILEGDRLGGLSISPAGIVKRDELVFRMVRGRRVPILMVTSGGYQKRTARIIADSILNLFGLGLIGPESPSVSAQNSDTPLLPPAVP
Outline: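 Full-length N-His human HDAC11 from baculovirus, 5 ng/μl, incubated with 50 μM Boc-Lys(trifluoroacetyl)-AMC for 30 min at 30 °C. Buffer: 50 mM Tris-HCl pH 8.0, 137 mM NaCl, 2.7 mM KCl, 1 mM MgCl2, 1 mg/mL BSA, 1% DMSO. Developer releases AMC; fluorescence read at 360/460 nm.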

T1 sequence (Q9UQL6 656-1122 limits assumed): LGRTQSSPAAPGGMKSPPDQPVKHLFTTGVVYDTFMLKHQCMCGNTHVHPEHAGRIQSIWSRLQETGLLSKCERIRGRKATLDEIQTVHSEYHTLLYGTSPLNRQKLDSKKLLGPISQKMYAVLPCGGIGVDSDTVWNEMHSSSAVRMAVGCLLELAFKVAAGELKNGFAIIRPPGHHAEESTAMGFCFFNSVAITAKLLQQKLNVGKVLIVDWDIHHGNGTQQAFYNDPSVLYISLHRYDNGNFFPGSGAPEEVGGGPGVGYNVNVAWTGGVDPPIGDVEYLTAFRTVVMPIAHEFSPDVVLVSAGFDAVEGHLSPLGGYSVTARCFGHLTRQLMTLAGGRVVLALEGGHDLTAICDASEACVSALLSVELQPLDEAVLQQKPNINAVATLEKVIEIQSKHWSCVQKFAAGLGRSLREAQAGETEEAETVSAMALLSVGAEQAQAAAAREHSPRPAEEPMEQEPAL
T4 sequence (Q92769 whole entry, canonical isoform): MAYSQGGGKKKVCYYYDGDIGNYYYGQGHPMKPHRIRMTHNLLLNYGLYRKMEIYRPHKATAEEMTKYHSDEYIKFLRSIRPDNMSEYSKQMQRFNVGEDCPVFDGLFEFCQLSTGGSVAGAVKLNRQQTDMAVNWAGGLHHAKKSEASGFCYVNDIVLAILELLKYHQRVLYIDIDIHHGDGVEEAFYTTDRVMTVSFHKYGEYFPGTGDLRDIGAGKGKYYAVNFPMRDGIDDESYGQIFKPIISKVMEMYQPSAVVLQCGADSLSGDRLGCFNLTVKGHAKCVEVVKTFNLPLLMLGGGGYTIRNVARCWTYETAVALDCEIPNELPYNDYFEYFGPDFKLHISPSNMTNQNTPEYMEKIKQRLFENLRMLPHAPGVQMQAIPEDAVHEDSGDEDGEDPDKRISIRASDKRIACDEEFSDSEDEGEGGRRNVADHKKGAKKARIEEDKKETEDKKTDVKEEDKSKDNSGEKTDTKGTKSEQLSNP
T2 sequence (O15379 whole entry, canonical isoform): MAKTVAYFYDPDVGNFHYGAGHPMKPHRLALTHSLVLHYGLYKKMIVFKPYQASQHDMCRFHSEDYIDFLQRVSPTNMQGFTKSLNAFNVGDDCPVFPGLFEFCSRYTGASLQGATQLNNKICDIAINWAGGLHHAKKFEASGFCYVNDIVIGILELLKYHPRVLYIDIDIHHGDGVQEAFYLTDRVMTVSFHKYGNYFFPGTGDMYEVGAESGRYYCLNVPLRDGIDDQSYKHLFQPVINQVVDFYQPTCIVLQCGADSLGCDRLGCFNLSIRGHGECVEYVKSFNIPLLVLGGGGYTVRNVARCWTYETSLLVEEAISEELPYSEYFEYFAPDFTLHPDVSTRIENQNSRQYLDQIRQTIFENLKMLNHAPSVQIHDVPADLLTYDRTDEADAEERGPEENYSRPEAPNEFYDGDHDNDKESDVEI
T2 sequence (Q9Y618 395-489 partner limits assumed): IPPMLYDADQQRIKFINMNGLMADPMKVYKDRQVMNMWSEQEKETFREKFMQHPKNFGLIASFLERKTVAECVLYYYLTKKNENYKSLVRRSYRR

- IC50 [1]: ≤ 1000 nM
- IC50 [2]: > 10000 nM
- IC50 [3]: ≤ 10000 nM
- IC50 [4]: > 10000 nM
- IC50 [5]: > 10000 nM
SMILES: O=C(c1cnnc(N(Cc2ccc(-c3noc(C(F)(F)F)n3)s2)c2cnccn2)c1)N1C[C@@H]2C[C@H]1CO2 [Example FV, 5-[(1S,4S)-2-Oxa-5-azabicyclo[2.2.1]heptane-5-carbonyl]-N-(pyrazin-2-yl)-N-({5-[5-(trifluoromethyl)-1,2,4-oxadiazol-3-yl]thiophen-2-yl}methyl)pyridazin-3-amine]

- IC50 [1]: ≤ 1000 nM
- IC50 [2]: > 10000 nM
- IC50 [3]: ≤ 1000 nM
- IC50 [4]: > 10000 nM
- IC50 [5]: > 10000 nM
SMILES: Cc1cnnc(N(Cc2ccc(-c3noc(C(F)(F)F)n3)s2)c2cnccn2)c1 [Example GN, 5-Methyl-N-(pyrazin-2-yl)-N-({5-[5-(trifluoromethyl)-1,2,4-oxadiazol-3-yl]thiophen-2-yl}methyl)pyridazin-3-amine]

- IC50 [1]: ≤ 500 nM
- IC50 [2]: ≤ 10000 nM
- IC50 [3]: ≤ 500 nM
- IC50 [4]: > 10000 nM
- IC50 [5]: > 10000 nM
SMILES: COC1CN(C(=O)c2ccc(N(Cc3ccc(-c4noc(C(F)(F)F)n4)s3)c3cnccn3)nn2)C1 [Example DR, 6-(3-Methoxyazetidine-1-carbonyl)-N-(pyrazin-2-yl)-N-({5-[5-(trifluoromethyl)-1,2,4-oxadiazol-3-yl]thiophen-2-yl}methyl)pyridazin-3-amine]

- IC50 [1]: ≤ 10000 nM
- IC50 [2]: ≤ 10000 nM
- IC50 [3]: ≤ 1000 nM
- IC50 [4]: > 10000 nM
- IC50 [5]: > 10000 nM
SMILES: O=C(c1cnnc(N(Cc2ccc(-c3noc(C(F)(F)F)n3)s2)c2cnccn2)c1)N1CC(C(F)(F)F)C1 [Example GJ, N-(Pyrazin-2-yl)-N-({5-[5-(trifluoromethyl)-1,2,4-oxadiazol-3-yl]thiophen-2-yl}methyl)-5-[3-(trifluoromethyl)azetidine-1-carbonyl]pyridazin-3-amine]

Second part, the molecule before the results:

SMILES: Cc1cnc(N(Cc2ccc(-c3noc(C(F)(F)F)n3)s2)c2cnccn2)cn1 [Example BH, 5-Methyl-N-(pyrazin-2-yl)-N-({5-[5-(trifluoromethyl)-1,2,4-oxadiazol-3-yl]thiophen-2-yl}methyl)pyrazin-2-amine]
- IC50 [1]: ≤ 1000 nM
- IC50 [2]: > 10000 nM
- IC50 [3]: ≤ 1000 nM
- IC50 [4]: > 10000 nM
- IC50 [5]: > 10000 nM

SMILES: CC(=O)Nc1cnnc(N(Cc2ccc(-c3noc(C(F)(F)F)n3)s2)c2cnccn2)c1 [Example FM, N-{6-[(Pyrazin-2-yl)({5-[5-(trifluoromethyl)-1,2,4-oxadiazol-3-yl]thiophen-2-yl}methyl)amino]pyridazin-4-yl}acetamide]
- IC50 [1]: ≤ 500 nM
- IC50 [2]: > 10000 nM
- IC50 [3]: ≤ 1000 nM
- IC50 [4]: > 10000 nM
- IC50 [5]: > 10000 nM

SMILES: FC(F)(F)c1nc(-c2ccc(CN(c3cnccn3)c3cc(N4CCOCC4)cnn3)s2)no1 [Example FP, 5-(Morpholin-4-yl)-N-(pyrazin-2-yl)-N-({5-[5-(trifluoromethyl)-1,2,4-oxadiazol-3-yl]thiophen-2-yl}methyl)pyridazin-3-amine]
- IC50 [1]: ≤ 500 nM
- IC50 [2]: > 10000 nM
- IC50 [3]: ≤ 10000 nM
- IC50 [4]: > 10000 nM
- IC50 [5]: > 10000 nM

SMILES: O=C(c1ccc(N(Cc2ccc(-c3noc(C(F)(F)F)n3)s2)c2cnccn2)nn1)N1C[C@@H]2C[C@H]1CO2 [Example FE, 6-[(1S,4S)-2-Oxa-5-azabicyclo[2.2.1]heptane-5-carbonyl]-N-(pyrazin-2-yl)-N-({5-[5-(trifluoromethyl)-1,2,4-oxadiazol-3-yl]thiophen-2-yl}methyl)pyridazin-3-amine]
- IC50 [1]: ≤ 500 nM
- IC50 [2]: ≤ 10000 nM
- IC50 [3]: ≤ 500 nM
- IC50 [4]: > 10000 nM
- IC50 [5]: > 10000 nM
